Experimental data reported in paper PMC8957246, “Synthesis and diverse biological activity profile of triethylammonium isatin-3-hydrazones” (ADMET & DMPK, 2022).
Where two headings read alike, the source gives them in different places.

How the values were obtained:
[1] = system: Pectobacterium atrosepticum 1043; test: Bactericidal activity, agar diffusion, P. atrosepticum; assay type: cell-based; conditions: Pectobacterium atrosepticum, 1043, 2 mM/L
Text: (§1) Plant pathogenic bacterial strains Micrococcus luteus B-109, Pectobacterium atrosepticum 1043, Pectobacterium carotovorum subsp. carotovorum MI, Pseudomonas fluorescens EL-2.1, and Xanthomonas campestris B-610 and fungal strain Fusarium oxysporum IBPPM 543 were obtained from the specialized scientific culture collection of IBPPM RAS (WFCC no. 975, WDCM no. 1021) (CM IBPPM). Pathogenic fungus Phytophthora cactorum VKM F-985 provided by the All-Russian Collection of Microorganisms (VKM) and deposited at A.E. Favorsky Irkutsk Institute of Chemistry, SB RAS, was also used as test organism. Bacteria M. luteus, P. carotovorum subsp. carotovorum, P. atrosepticum, and Ps. fluorescens were grown in meat-peptone medium (BP), and X. campestris was grown in the medium with glucose, yeast extract, and calcium carbonate (GYCa). Solid media contained Bacto agar (18 g/L); pH was adjusted to 7.2-7.4. All bacterial cultures were grown at 28°C. The mycelial cultures of F. oxysporum and P. cactorum were grown on a glucose-peptone-yeast (GPY) nutrient medium at 27 °C. For inoculum preparation, both fungal strains were initially grown on the agar GPY in Petri dishes and then transferred into the seed medium by punching out 5 mm of the agar plate culture with a self-designed cutter.
Antibacterial and antifungal activities of the compounds were explored using the agar diffusion method and the technique of a phytopathogen radial growth inhibition. Method of diffusion in agar (measuring the diameter of growth inhibition zones) was used for determining the bactericidal activity. The 6-mm wells were made in ager medium (GYCa for Xanthomonas campestris or BP for other bacteria). Bacterial suspensions were distributed over the agar surface, and the tested compound's solution (150 μl) was added to each well. The width of growth inhibition zones around the wells was determined after incubation for 36-40 h.
(§2) The solutions of tested compounds were prepared with a concentration of 2 mmol/l (stock solution). For comparison, test compounds were also commonly applied disinfecting agents and antibiotics.

[2] = system: Fusarium oxysporum IBPPM 543; test: Fungicidal activity, radial growth inhibition, F. oxysporum; assay type: cell-based; conditions: for EC50: Fusarium oxysporum, IBPPM543, 168 h, day 7, EC50 = 50C/I, read-out: EC50, μg/mL at day 7
Text: as §1
For the fungicidal activity analysis, radial growth (colony diameters) of the fungi on a solid medium in the absence and in the presence of the compounds 3a,c-g solutions at various concentrations were compared. The method consisted of the following: sterile, melted and then cooled to about 60°C GPY agar medium (20.0 ml) was mixed with the precisely measured volumes of the solutions under question, and poured into a sterile Petri dish (90 mm i.d.). After solidification of GPY agar, the media were inoculated by the fungus using 10-day-old cultures of F. oxysporum or P. cactorum. The inoculation was done by transferring a 5-mm (i.d.) GPY-agar block covered with mycelium to the center of the Petri dish followed by incubation in a thermostat at 27°C. The fungicidal effect was scored by the size of mycelium colony on a Petri dish compared to the control without fungicidal admixtures to GPY agar. Each treatment was performed in at least four replicates in two independent experiments. The observation period ended when the control Petri dish was filled with mycelium (usually after 12 days). The inhibition of the phytopathogen colony growth by the compounds 3a,c-g or fludioxonil solutions was calculated as a percentage by which the mycelium radial propagation was decreased compared to the unaffected control, the latter was taken as 100 % of growth (or zero percent of inhibition). The EC50 value was calculated as the compound concentration at which the radial growth of the fungus colony was decreased by 50 % relative to the non-fungicidal control, according to the formula EC50 = 50C/I based on the approach developed e.g., in [34, 35].
as §2

[3] = 150 μl per well, 36-40 h, read-out: width of the inhibition zone
[4] = read-out: Inhibition zone width (mm), not less

CC[N+](CC)(CC)CC(=O)N/N=C1\C(=O)N(Cc2cc(C(C)(C)C)c(O)c(C(C)(C)C)c2)c2ccccc21 [Compound 3a, 2-(2-(1-(3,5-Di-tert-butyl-4-hydroxybenzyl)-2-oxoindolin-3-ylidene)hydrazinyl)-N,N,N-triethyl-2-oxoethanammonium bromide]
zone of inhibition at 2000 µM [1, 3]: 8 mm
zone of inhibition at 2000 µM [1, 4]: ≥ 8 mm
Inhibition value, I (%) ([2]; C 6.02 μg/mL, age of the fungus 3 days): 11%
Inhibition value, I (%) ([2]; C 6.02 μg/mL, age of the fungus 5 days): 4%
Inhibition value, I (%) ([2]; C 6.02 μg/mL, age of the fungus 7 days): 9%
Inhibition value, I (%) ([2]; C 6.02 μg/mL, age of the fungus 9 days): 0%
Inhibition value, I (%) ([2]; C 12.04 μg/mL, age of the fungus 3 days): 14%
Inhibition value, I (%) ([2]; C 12.04 μg/mL, age of the fungus 5 days): 12%
Inhibition value, I (%) ([2]; C 12.04 μg/mL, age of the fungus 7 days): 18%
Inhibition value, I (%) ([2]; C 12.04 μg/mL, age of the fungus 9 days): 3%
Inhibition value, I (%) ([2]; C 24.08 μg/mL, age of the fungus 3 days): 24%
Inhibition value, I (%) ([2]; C 24.08 μg/mL, age of the fungus 5 days): 16%
Inhibition value, I (%) ([2]; C 24.08 μg/mL, age of the fungus 7 days): 27%
Inhibition value, I (%) ([2]; C 24.08 μg/mL, age of the fungus 9 days): 4%
Inhibition value, I (%) ([2]; C 36.12 μg/mL, age of the fungus 3 days): 28%
Inhibition value, I (%) ([2]; C 36.12 μg/mL, age of the fungus 5 days): 24%
Inhibition value, I (%) ([2]; C 36.12 μg/mL, age of the fungus 7 days): 30%
Inhibition value, I (%) ([2]; C 36.12 μg/mL, age of the fungus 9 days): 12%
EC50 [2]: 33.4 µg/mL

CC[N+](CC)(CC)CC(=O)N/N=C1\C(=O)N(Cc2cc(C(C)(C)C)c(O)c(C(C)(C)C)c2)c2cccc(Br)c21 [Compound 3e, 2-(2-(1-(3,5-Di-tert-butyl-4-hydroxybenzyl)-4-bromo-2-oxoindolin-3-ylidene)hydrazinyl)-N,N,N-triethyl-2-oxoethanammonium bromide]
zone of inhibition at 2000 µM [1, 3]: 15 mm
zone of inhibition at 2000 µM [1, 4]: ≥ 15 mm
Inhibition value, I (%) ([2]; C 6.81 μg/mL, age of the fungus 3 days): 11%
Inhibition value, I (%) ([2]; C 6.81 μg/mL, age of the fungus 5 days): 13%
Inhibition value, I (%) ([2]; C 6.81 μg/mL, age of the fungus 7 days): 19%
Inhibition value, I (%) ([2]; C 6.81 μg/mL, age of the fungus 9 days): 6%
Inhibition value, I (%) ([2]; C 13.62 μg/mL, age of the fungus 3 days): 14%
Inhibition value, I (%) ([2]; C 13.62 μg/mL, age of the fungus 5 days): 18%
Inhibition value, I (%) ([2]; C 13.62 μg/mL, age of the fungus 7 days): 22%
Inhibition value, I (%) ([2]; C 13.62 μg/mL, age of the fungus 9 days): 9%
Inhibition value, I (%) ([2]; C 27.24 μg/mL, age of the fungus 3 days): 19%
Inhibition value, I (%) ([2]; C 27.24 μg/mL, age of the fungus 5 days): 19%
Inhibition value, I (%) ([2]; C 27.24 μg/mL, age of the fungus 7 days): 25%
Inhibition value, I (%) ([2]; C 27.24 μg/mL, age of the fungus 9 days): 20%
Inhibition value, I (%) ([2]; C 40.86 μg/mL, age of the fungus 3 days): 40%
Inhibition value, I (%) ([2]; C 40.86 μg/mL, age of the fungus 5 days): 37%
Inhibition value, I (%) ([2]; C 40.86 μg/mL, age of the fungus 7 days): 43%
Inhibition value, I (%) ([2]; C 40.86 μg/mL, age of the fungus 9 days): 29%
EC50 [2]: 17.9 µg/mL

CC[N+](CC)(CC)CC(=O)N/N=C1\C(=O)N(Cc2cc(C(C)(C)C)c(O)c(C(C)(C)C)c2)c2ccc([N+](=O)[O-])cc21 [Compound 3f, 2-(2-(1-(3,5-Di-tert-butyl-4-hydroxybenzyl)-5-nitro-2-oxoindolin-3-ylidene)hydrazinyl)-N,N,N-triethyl-2-oxoethanammonium bromide]
zone of inhibition at 2000 µM [1, 3]: 10 mm
zone of inhibition at 2000 µM [1, 4]: ≥ 10 mm
Inhibition value, I (%) ([2]; C 6.47 μg/mL, age of the fungus 3 days): 13%
Inhibition value, I (%) ([2]; C 6.47 μg/mL, age of the fungus 5 days): 11%
Inhibition value, I (%) ([2]; C 6.47 μg/mL, age of the fungus 7 days): 10%
Inhibition value, I (%) ([2]; C 6.47 μg/mL, age of the fungus 9 days): 9%
Inhibition value, I (%) ([2]; C 12.94 μg/mL, age of the fungus 3 days): 26%
Inhibition value, I (%) ([2]; C 12.94 μg/mL, age of the fungus 5 days): 23%
Inhibition value, I (%) ([2]; C 12.94 μg/mL, age of the fungus 7 days): 21%
Inhibition value, I (%) ([2]; C 12.94 μg/mL, age of the fungus 9 days): 10%
Inhibition value, I (%) ([2]; C 25.88 μg/mL, age of the fungus 3 days): 28%
Inhibition value, I (%) ([2]; C 25.88 μg/mL, age of the fungus 5 days): 27%
Inhibition value, I (%) ([2]; C 25.88 μg/mL, age of the fungus 7 days): 32%
Inhibition value, I (%) ([2]; C 25.88 μg/mL, age of the fungus 9 days): 12%
Inhibition value, I (%) ([2]; C 38.82 μg/mL, age of the fungus 3 days): 29%
Inhibition value, I (%) ([2]; C 38.82 μg/mL, age of the fungus 5 days): 28%
Inhibition value, I (%) ([2]; C 38.82 μg/mL, age of the fungus 7 days): 34%
Inhibition value, I (%) ([2]; C 38.82 μg/mL, age of the fungus 9 days): 18%
EC50 [2]: 30.8 µg/mL

CC[N+](CC)(CC)CC(=O)N/N=C1\C(=O)N(Cc2cc(C(C)(C)C)c(O)c(C(C)(C)C)c2)c2c(Br)cc(Cl)cc21 [Compound 3g, 2-(2-(1-(3,5-Di-tert-butyl-4-hydroxybenzyl)-5-chloro-7-bromo-2-oxoindolin-3-ylidene)hydrazinyl)-N,N,N-triethyl-2-oxoethanammonium bromide]
zone of inhibition at 2000 µM [1, 3]: 9 mm
zone of inhibition at 2000 µM [1, 4]: ≥ 9 mm
Inhibition value, I (%) ([2]; C 7.15 μg/mL, age of the fungus 3 days): 0%
Inhibition value, I (%) ([2]; C 7.15 μg/mL, age of the fungus 5 days): 4%
Inhibition value, I (%) ([2]; C 7.15 μg/mL, age of the fungus 7 days): 5%
Inhibition value, I (%) ([2]; C 7.15 μg/mL, age of the fungus 9 days): 4%
Inhibition value, I (%) ([2]; C 14.30 μg/mL, age of the fungus 3 days): 9%
Inhibition value, I (%) ([2]; C 14.30 μg/mL, age of the fungus 5 days): 4%
Inhibition value, I (%) ([2]; C 14.30 μg/mL, age of the fungus 7 days): 11%
Inhibition value, I (%) ([2]; C 14.30 μg/mL, age of the fungus 9 days): 5%
Inhibition value, I (%) ([2]; C 28.60 μg/mL, age of the fungus 3 days): 11%
Inhibition value, I (%) ([2]; C 28.60 μg/mL, age of the fungus 5 days): 7%
Inhibition value, I (%) ([2]; C 28.60 μg/mL, age of the fungus 7 days): 26%
Inhibition value, I (%) ([2]; C 28.60 μg/mL, age of the fungus 9 days): 10%
Inhibition value, I (%) ([2]; C 42.90 μg/mL, age of the fungus 3 days): 31%
Inhibition value, I (%) ([2]; C 42.90 μg/mL, age of the fungus 5 days): 27%
Inhibition value, I (%) ([2]; C 42.90 μg/mL, age of the fungus 7 days): 32%
Inhibition value, I (%) ([2]; C 42.90 μg/mL, age of the fungus 9 days): 13%
EC50 [2]: 55 µg/mL
